How the values were obtained:
[1] = human gut metagenome, 24 h, 2 µM
[2] = human gut metagenome, 24 h, 2 µM; remark: listed apart in the source
[3] = (§1) The drug is tested on Z-001 corresponding to mouse gut metagenome with ENA study accession number: PRJEB37062 and ENA sample accession number: ERS12561801 for biotransformation under anaerobic condition. The drug concentrations were measured over 9 timepoints collected between 0 and 24 hours of incubation by liquid-chromatography-coupled mass spectrometry (LC–MS); conditions: 2 µM
[4] = human gut metagenome, 24 h, 2 µM; remark: listed apart in the source
[5] = human gut metagenome, 24 h, 2 µM; remark: listed apart in the source
[6] = as §1, with “Z-008” for “Z-001”, “to” for “to mouse gut”, “ERS12561808” for “ERS12561801”; conditions: 2 µM
[7] = human gut metagenome, 24 h, 2 µM; remark: listed apart in the source
[8] = human gut metagenome, 24 h, 2 µM; remark: listed apart in the source
[9] = as §1, with “WLS-350” for “Z-001”, “human” for “mouse”, “ERS12561789” for “ERS12561801”; conditions: 2 µM
Further: call rule not given here.

## C#C[C@]1(OC(C)=O)CC[C@H]2[C@@H]3CCC4=C[C@@H](OC(C)=O)CC[C@@H]4[C@H]3CC[C@@]21C [ETHYNODIOL DIACETATE]
[1]
  Bacterial Biotransformation: Compound metabolized
[2]
  Bacterial Biotransformation: Compound metabolized
[3]
  Bacterial Biotransformation: Compound metabolized
[4]
  Bacterial Biotransformation: Compound metabolized
[5]
  Bacterial Biotransformation: Compound metabolized
[6]
  Bacterial Biotransformation: Compound metabolized
[7]
  Bacterial Biotransformation: Compound metabolized
[8]
  Bacterial Biotransformation: Compound metabolized
[9]
  Bacterial Biotransformation: Compound metabolized

## CC(C)c1c(CN(C)C(C)Cc2ccccc2)n(C)n(-c2ccccc2)c1=O (configuration not stated) [FAMPROFAZONE]
[1]
  Bacterial Biotransformation: Compound metabolized
[2]
  Bacterial Biotransformation: Compound metabolized
[3]
  Bacterial Biotransformation: Compound metabolized
[4]
  Bacterial Biotransformation: Compound metabolized
[5]
  Bacterial Biotransformation: Compound metabolized
[6]
  Bacterial Biotransformation: Compound metabolized
[7]
  Bacterial Biotransformation: Compound metabolized
[8]
  Bacterial Biotransformation: Compound metabolized
[9]
  Bacterial Biotransformation: Compound metabolized

## N=C(N)NC(=O)Cc1c(Cl)cccc1Cl [GUANFACINE]
[1]
  Bacterial Biotransformation: Compound NOT metabolized
[2]
  Bacterial Biotransformation: Compound NOT metabolized
[3]
  Bacterial Biotransformation: Compound NOT metabolized
[4]
  Bacterial Biotransformation: Compound NOT metabolized
[5]
  Bacterial Biotransformation: Compound NOT metabolized
[6]
  Bacterial Biotransformation: Compound NOT metabolized
[7]
  Bacterial Biotransformation: Compound NOT metabolized
[8]
  Bacterial Biotransformation: Compound NOT metabolized
[9]
  Bacterial Biotransformation: Compound NOT metabolized

## Nc1nc(N)nc(-c2cc(Cl)ccc2Cl)n1.O=C(O)/C=C\C(=O)O [IRSOGLADINE MALEATE]
[1]
  Bacterial Biotransformation: Compound NOT metabolized
[2]
  Bacterial Biotransformation: Compound NOT metabolized
[3]
  Bacterial Biotransformation: Compound NOT metabolized
[4]
  Bacterial Biotransformation: Compound NOT metabolized
[5]
  Bacterial Biotransformation: Compound NOT metabolized
[6]
  Bacterial Biotransformation: Compound NOT metabolized
[7]
  Bacterial Biotransformation: Compound NOT metabolized
[8]
  Bacterial Biotransformation: Compound NOT metabolized
[9]
  Bacterial Biotransformation: Compound NOT metabolized

## CN1CCC(=C2c3ccccc3CC(=O)c3sccc32)CC1.O=C(O)/C=C/C(=O)O [KETOTIFEN FUMARATE]
[1]
  Bacterial Biotransformation: Compound metabolized
[2]
  Bacterial Biotransformation: Compound metabolized
[3]
  Bacterial Biotransformation: Compound NOT metabolized
[4]
  Bacterial Biotransformation: Compound NOT metabolized
[5]
  Bacterial Biotransformation: Compound metabolized
[6]
  Bacterial Biotransformation: Compound NOT metabolized
[7]
  Bacterial Biotransformation: Compound metabolized
[8]
  Bacterial Biotransformation: Compound metabolized
[9]
  Bacterial Biotransformation: Compound NOT metabolized

## CC[C@H](C)C(=O)O[C@H]1CCC=C2C=C[C@H](C)[C@H](CC[C@@H]3C[C@@H](O)CC(=O)O3)[C@H]21 [MEVASTATIN]
[1]
  Bacterial Biotransformation: Compound metabolized
[2]
  Bacterial Biotransformation: Compound NOT metabolized
[3]
  Bacterial Biotransformation: Compound NOT metabolized
[4]
  Bacterial Biotransformation: Compound metabolized
[5]
  Bacterial Biotransformation: Compound metabolized
[6]
  Bacterial Biotransformation: Compound NOT metabolized
[7]
  Bacterial Biotransformation: Compound metabolized
[8]
  Bacterial Biotransformation: Compound metabolized
[9]
  Bacterial Biotransformation: Compound NOT metabolized

## COc1ccc2cc([C@H](C)C(=O)O)ccc2c1 [NAPROXEN]
[1]
  Bacterial Biotransformation: Compound metabolized
[2]
  Bacterial Biotransformation: Compound metabolized
[3]
  Bacterial Biotransformation: Compound NOT metabolized
[4]
  Bacterial Biotransformation: Compound metabolized
[5]
  Bacterial Biotransformation: Compound metabolized
[6]
  Bacterial Biotransformation: Compound NOT metabolized
[7]
  Bacterial Biotransformation: Compound metabolized
[8]
  Bacterial Biotransformation: Compound metabolized
[9]
  Bacterial Biotransformation: Compound metabolized

## C#C[C@]1(OC(C)=O)CC[C@H]2[C@@H]3CCC4=C/C(=N/O)CC[C@@H]4[C@H]3CC[C@@]21CC [NORGESTIMATE]
[1]
  Bacterial Biotransformation: Compound NOT metabolized
[2]
  Bacterial Biotransformation: Compound metabolized
[3]
  Bacterial Biotransformation: Compound NOT metabolized
[4]
  Bacterial Biotransformation: Compound metabolized
[5]
  Bacterial Biotransformation: Compound metabolized
[6]
  Bacterial Biotransformation: Compound NOT metabolized
[7]
  Bacterial Biotransformation: Compound metabolized
[8]
  Bacterial Biotransformation: Compound metabolized
[9]
  Bacterial Biotransformation: Compound metabolized

## COc1ccnc(C[S+]([O-])c2nc3ccc(OC(F)F)cc3[nH]2)c1OC (configuration not stated) [PANTOPRAZOLE]
[1]
  Bacterial Biotransformation: Compound metabolized
[2]
  Bacterial Biotransformation: Compound metabolized
[3]
  Bacterial Biotransformation: Compound NOT metabolized
[4]
  Bacterial Biotransformation: Compound metabolized
[5]
  Bacterial Biotransformation: Compound metabolized
[6]
  Bacterial Biotransformation: Compound metabolized
[7]
  Bacterial Biotransformation: Compound metabolized
[8]
  Bacterial Biotransformation: Compound metabolized
[9]
  Bacterial Biotransformation: Compound metabolized

## O=C1N=C([O-])NC1(c1ccccc1)c1ccccc1.[Na+] [PHENYTOIN SODIUM]
[1]
  Bacterial Biotransformation: Compound NOT metabolized
[2]
  Bacterial Biotransformation: Compound metabolized
[3]
  Bacterial Biotransformation: Compound NOT metabolized
[4]
  Bacterial Biotransformation: Compound metabolized
[5]
  Bacterial Biotransformation: Compound metabolized
[6]
  Bacterial Biotransformation: Compound NOT metabolized
[7]
  Bacterial Biotransformation: Compound metabolized
[8]
  Bacterial Biotransformation: Compound metabolized
[9]
  Bacterial Biotransformation: Compound metabolized

## C[C@]12C=CC(=O)C=C1CC[C@@H]1[C@@H]2C(=O)C[C@@]2(C)[C@H]1CC[C@]2(O)C(=O)CO [PREDNISONE]
[1]
  Bacterial Biotransformation: Compound metabolized
[2]
  Bacterial Biotransformation: Compound metabolized
[3]
  Bacterial Biotransformation: Compound metabolized
[4]
  Bacterial Biotransformation: Compound metabolized
[5]
  Bacterial Biotransformation: Compound metabolized
[6]
  Bacterial Biotransformation: Compound NOT metabolized
[7]
  Bacterial Biotransformation: Compound metabolized
[8]
  Bacterial Biotransformation: Compound metabolized
[9]
  Bacterial Biotransformation: Compound metabolized

## CN(CCOc1ccc(CC2SC(=O)NC2=O)cc1)c1ccccn1.O=C(O)/C=C\C(=O)O (configuration not stated) [ROSIGLITAZONE MALEATE]
[1]
  Bacterial Biotransformation: Compound metabolized
[2]
  Bacterial Biotransformation: Compound metabolized
[3]
  Bacterial Biotransformation: Compound NOT metabolized
[4]
  Bacterial Biotransformation: Compound NOT metabolized
[5]
  Bacterial Biotransformation: Compound metabolized
[6]
  Bacterial Biotransformation: Compound NOT metabolized
[7]
  Bacterial Biotransformation: Compound NOT metabolized
[8]
  Bacterial Biotransformation: Compound metabolized
[9]
  Bacterial Biotransformation: Compound metabolized

## CC(C)c1nc(N(C)S(C)(=O)=O)nc(-c2ccc(F)cc2)c1/C=C/[C@@H](O)C[C@@H](O)CC(=O)[O-].CC(C)c1nc(N(C)S(C)(=O)=O)nc(-c2ccc(F)cc2)c1/C=C/[C@@H](O)C[C@@H](O)CC(=O)[O-].[Ca+2] [ROSUVASTATIN CALCIUM]
[1]
  Bacterial Biotransformation: Compound metabolized
[2]
  Bacterial Biotransformation: Compound NOT metabolized
[3]
  Bacterial Biotransformation: Compound NOT metabolized
[4]
  Bacterial Biotransformation: Compound metabolized
[5]
  Bacterial Biotransformation: Compound metabolized
[6]
  Bacterial Biotransformation: Compound NOT metabolized
[7]
  Bacterial Biotransformation: Compound metabolized
[8]
  Bacterial Biotransformation: Compound metabolized
[9]
  Bacterial Biotransformation: Compound metabolized

## O=C(O)c1cc(/N=N/c2ccc(S(=O)(=O)Nc3ccccn3)cc2)ccc1O [SULFASALAZINE]
[1]
  Bacterial Biotransformation: Compound metabolized
[2]
  Bacterial Biotransformation: Compound metabolized
[3]
  Bacterial Biotransformation: Compound metabolized
[4]
  Bacterial Biotransformation: Compound metabolized
[5]
  Bacterial Biotransformation: Compound metabolized
[6]
  Bacterial Biotransformation: Compound metabolized
[7]
  Bacterial Biotransformation: Compound metabolized
[8]
  Bacterial Biotransformation: Compound metabolized
[9]
  Bacterial Biotransformation: Compound metabolized

## C=CC[C@@H]1/C=C(\C)C[C@H](C)C[C@H](OC)[C@H]2O[C@@](O)(C(=O)C(=O)N3CCCC[C@H]3C(=O)O[C@H](/C(C)=C/[C@@H]3CC[C@@H](O)[C@H](OC)C3)[C@H](C)[C@@H](O)CC1=O)[C@H](C)C[C@@H]2OC.O [TACROLIMUS]
[1]
  Bacterial Biotransformation: Compound metabolized
[2]
  Bacterial Biotransformation: Compound metabolized
[3]
  Bacterial Biotransformation: Compound NOT metabolized
[4]
  Bacterial Biotransformation: Compound metabolized
[5]
  Bacterial Biotransformation: Compound metabolized
[6]
  Bacterial Biotransformation: Compound NOT metabolized
[7]
  Bacterial Biotransformation: Compound metabolized
[8]
  Bacterial Biotransformation: Compound metabolized
[9]
  Bacterial Biotransformation: Compound NOT metabolized

## CCS(=O)(=O)CCn1c([N+](=O)[O-])cnc1C [TINIDAZOLE]
[1]
  Bacterial Biotransformation: Compound metabolized
[2]
  Bacterial Biotransformation: Compound metabolized
[3]
  Bacterial Biotransformation: Compound metabolized
[4]
  Bacterial Biotransformation: Compound metabolized
[5]
  Bacterial Biotransformation: Compound metabolized
[6]
  Bacterial Biotransformation: Compound metabolized
[7]
  Bacterial Biotransformation: Compound metabolized
[8]
  Bacterial Biotransformation: Compound metabolized
[9]
  Bacterial Biotransformation: Compound metabolized

## COc1ccc(CN2CCNCC2)c(OC)c1OC.Cl.Cl [TRIMETAZIDINE DIHYDROCHLORIDE]
[1]
  Bacterial Biotransformation: Compound NOT metabolized
[2]
  Bacterial Biotransformation: Compound NOT metabolized
[3]
  Bacterial Biotransformation: Compound NOT metabolized
[4]
  Bacterial Biotransformation: Compound NOT metabolized
[5]
  Bacterial Biotransformation: Compound NOT metabolized
[6]
  Bacterial Biotransformation: Compound NOT metabolized
[7]
  Bacterial Biotransformation: Compound NOT metabolized
[8]
  Bacterial Biotransformation: Compound NOT metabolized
[9]
  Bacterial Biotransformation: Compound NOT metabolized

## CN1[C@@H]2CC[C@H]1C[C@@H](OC(=O)c1c[nH]c3ccccc13)C2 [TROPISETRON]
[1]
  Bacterial Biotransformation: Compound NOT metabolized
[2]
  Bacterial Biotransformation: Compound NOT metabolized
[3]
  Bacterial Biotransformation: Compound NOT metabolized
[4]
  Bacterial Biotransformation: Compound NOT metabolized
[5]
  Bacterial Biotransformation: Compound NOT metabolized
[6]
  Bacterial Biotransformation: Compound NOT metabolized
[7]
  Bacterial Biotransformation: Compound NOT metabolized
[8]
  Bacterial Biotransformation: Compound NOT metabolized
[9]
  Bacterial Biotransformation: Compound NOT metabolized
